Reference: patent publication US20220380414A1, “COMPOSITIONS AND METHODS BASED ON HIV GP120 MUTANTS” (CENTRE H[…] L'UNIVERSITÉ DE MONTRÉAL, priority 2019, published 2022)
Entries after “also recorded” stand apart in the source; their conditions may differ.

Legend:
[1] = test system: Recombinant HIV-1 strains bearing wild-type or mutant CRF01_AE Envs (92TH023 and CM244 isolates); assay: Neutralization of recombinant luciferase HIV-1 bearing wild-type or mutant CRF01_AE Envs, infection of Cf2Th-CD4/CCR5 cells; assay type: cell-based
Method: J Virol 74:10690-10698). Infectivity at each dilution of sCD4 or CD4mc tested is shown as the percentage of infection without sCD4 or CD4mc for each particular mutant. Quadruplicate samples were analyzed in each experiment. Data shown are the means of results obtained in at least 3 independent experiments. The error bars represent the standard deviations. […]
FIGS. 6A-F show the effect of Phe43 cavity and layer mutations (LM) on neutralization by small molecules known to stabilize Env State 1. Recombinant HIV-1 strains expressing luciferase and bearing wild-type or mutant CRF01_AE Envs (92TH023 and CM244 isolates) were normalized by reverse transcriptase activity. Normalized amounts of viruses were incubated with serial dilutions of BMS-626529 (Nowicka-Sans B et al. 2012. Antimicrob Agents Chemother 56:3498-3507; Pancera M et al., 2017. Nat Chem Biol 13:1115-1122) (FIG. 6A, B) or 484 (16) (FIG. 6C) at 37° C. for 1 h prior to infection of Cf2Th-CD4/CCR5 cells. Infectivity at each dilution of the compound tested is shown as the percentage of infection without the compound for each particular mutant. Quadruplicate samples were analyzed in each experiment. Data shown are the means of results obtained in at least 3 independent experiments. The error bars represent the standard deviations. (FIG. 6E, F) Cell-surface staining of 293T cells transfected with different CRF01_AE Env expressors (92TH023 and CM244 isolates) WT or their mutated counterparts together with a GFP expressor (in order to identify positively transfected cells) using sCD4. Binding of sCD4 in presence of BMS-626529 (50 μM) or not (DMSO) was detected with the anti-CD4 OKT4 mAb. Shown are the mean fluorescence intensities (MFI) obtained in presence of BNM-III-170 normalized to the MFI in absence of BNM-III-170 (DMSO) from the transfected (GFP+) population for staining obtained in at least 3 independent experiments. All MFI were normalized to 2G12 MFI for each Env mutants. Decrease in sCD4 signal indicates competition with BMS-626529 (i.e., this represents an indirect measure of BMS-626529 interaction with each Env mutant). […] Error bars indicate mean±SEM. Statistical significance was tested using an unpaired t-test (** p<0.01, ns: non significant). […]
CD4mc were used as probes to evaluate the potential impact of the LM residues on shaping the Phe43 cavity. […] In contrast, no or very little effect was measured in recombinant viruses with mutations in the Phe43 cavity only or in the inner domain layer only.

[2] = test system: CRF01_AE Env (92TH023 and CM244 isolates) WT or mutated; assay: Cell-surface staining of HEK293T cells transfected with CRF01_AE Env expressors, Env ligand binding with or without compound; assay type: cell-based, HIV-1
Method: Cell-surface staining of HEK293T cells transfected with different CRF01_AE Env expressors (92TH023 and CM244 isolates) WT or their mutated counterparts together with a GFP expressor (in order to identify positively transfected cells) using a panel of Env ligands. (FIG. 4A, B) sCD4 binding in presence of BNM-III-170 (50 μM) or not (DMSO) was detected with the anti-CD4 OKT4 mAb. Binding of broadly-neutralizing antibodies (bNAbs) that preferentially recognize state 1 Env (Lu M et al. 2019. Nature 568, pages 415-419; Munro J B et al., 2014. Science 346:759-763) (FIG. 4B, E) and non-neutralizing antibodies (nnAbs) that preferentially recognize states 2/2A/3 (Alsahafi N et al., 2019. Cell Host Microbe 25:578-587, Prevost J et al., 2018. Virology 515:38-45) (FIG. 4C, F) was also performed in presence of BNM-III-170 (50 μM) or not (DMSO). Shown are the mean fluorescence intensities (MFI) obtained in presence of BNM-III-170 normalized to the MFI in absence of BNM-111-170 (DMSO) from the transfected (GFP+) population for staining obtained in at least 3 independent experiments. All MFI were normalized to MFI signals obtained with the anti-gp120 outer domain 2G12. Decrease in sCD4 signal indicates competition with BNM-III-170 (i.e., this represents an indirect measure of BNM-III-170 interaction with each Env mutant) (FIGS. 4A and D). […] Increase in nnAbs signal is consistent with the capacity of BNM-III-170 to push Env to downstream “open” states 2/3 conformations (C and F). […] Error bars indicate mean±SEM. Statistical significance was tested using an unpaired t-test (* p<0.05, ** p<0.01, *** p<0.001, **** p<0.0001, ns: non significant).
FIGS. 6A-F show the effect of Phe43 cavity and layer mutations (LM) on neutralization by small molecules known to stabilize Env State 1. Recombinant HIV-1 strains expressing luciferase and bearing wild-type or mutant CRF01_AE Envs (92TH023 and CM244 isolates) were normalized by reverse transcriptase activity. Normalized amounts of viruses were incubated with serial dilutions of BMS-626529 (Nowicka-Sans B et al. 2012. Antimicrob Agents Chemother 56:3498-3507; Pancera M et al., 2017. Nat Chem Biol 13:1115-1122) (FIG. 6A, B) or 484 (16) (FIG. 6C) at 37° C. for 1 h prior to infection of Cf2Th-CD4/CCR5 cells. Infectivity at each dilution of the compound tested is shown as the percentage of infection without the compound for each particular mutant. Quadruplicate samples were analyzed in each experiment. Data shown are the means of results obtained in at least 3 independent experiments. The error bars represent the standard deviations. (FIG. 6E, F) Cell-surface staining of 293T cells transfected with different CRF01_AE Env expressors (92TH023 and CM244 isolates) WT or their mutated counterparts together with a GFP expressor (in order to identify positively transfected cells) using sCD4. Binding of sCD4 in presence of BMS-626529 (50 μM) or not (DMSO) was detected with the anti-CD4 OKT4 mAb. Shown are the mean fluorescence intensities (MFI) obtained in presence of BNM-III-170 normalized to the MFI in absence of BNM-III-170 (DMSO) from the transfected (GFP+) population for staining obtained in at least 3 independent experiments. All MFI were normalized to 2G12 MFI for each Env mutants. Decrease in sCD4 signal indicates competition with BMS-626529 (i.e., this represents an indirect measure of BMS-626529 interaction with each Env mutant). […] Error bars indicate mean±SEM. Statistical significance was tested using an unpaired t-test (** p<0.01, ns: non significant).
To gain a better understanding of the impact that the LM and 375 changes have on Env conformation, an assay to measure sCD4 and BNM-III-170 capacity to interact with Env was developed. Briefly, CD4-negative cells were transfected with Env variants. Two days post-transfection, BNM-III-170 or the vehicle (DMSO) was added to Env-expressing cells. […]

[3] = test system: CRF01_AE Env from a transmitted founder strain (40100 isolate) with LM+HS mutations; assay: Cell-surface staining of primary CD4+ T cells infected with SHIV expressing CRF01_AE Env, anti-Env mAb binding with compound; assay type: cell-based
Method: Cell-surface staining of primary CD4^+ T cells infected with SHIV expressing a CRF01_AE Env from a transmitted founder strain (40100 isolate) (Chenine A L et al., 2018. J Acquir Immune Defic Syndr 78:348-355; Kijak G H et al., 2017. PLoS Pathog 13:e1006510) mutated to harbor the LM+HS mutations using a panel of Env ligands. Binding of anti-Env mAbs preferring State 1 (PGT128, PGT145, PG9, 10-1074) (FIG. 7A-D) or preferring State 2/3 (19b, 17b) (FIG. 7E-F) was performed in presence of DMSO or increasing amount of BNM-III-170 (stabilises States 2/3 (Munro J B et al., 2014. Science 346:759-763; Alsahafi N et al., 2019. Cell Host Microbe 25:578-587: e575; Herschhorn A, et al. 2017. Nat Commun 8:1049) or BMS-626529 (stabilizes State 1, (Lu M et al. 2019. Nature 568, pages 415-419; Munro J B et al., 2014. Science 346:759-763)). Shown are the mean fluorescence intensities (MFI) obtained in presence of the compounds normalized to the MFI in absence of any compound (DMSO) from the infected (p27+) population. All MFI were normalized to 2G12 MFI for each mAb. State 1 and State 2/3 Abs were grouped in FIG. 7G and FIG. 7H, respectively.

[4] = LM+HS or LM+HT mutants of CRF01_AE Envs versus wild-type
[5] = LM+HS or LM+HT mutants, BNM-III-170 50 μM vs DMSO

SMILES	susceptibility to neutralization ([1]; H375S combined with LM mutations (LM+HS), both CRF01_AE strains)	neutralization of pseudotypes ([1]; H375S mutant of both CRF01_AE Envs)	sensitivity to neutralization [1, 4]	sensitivity to neutralization ([1]; different combinations of single or multiple layer mutations together with H375S)	neutralization of viral particles ([1]; wild-type CRF01_AE Envs (92TH023 and CM244))	Env conformation adopted in presence of ligand ([2]; CRF01_AE gp160 with H61Y, Q105H, V108I, N474D, I475M, K476R combined with H375T)	compound-induced Env conformational changes (open conformation) [2, 5]	recognition by state 1 preferring bNAbs in presence of compound [2, 5]	sCD4 and nnAbs binding (open state 2/3 preferring) in presence of compound [2, 5]	Env recognition by nnAbs preferentially binding states 2/3 in presence of compound ([3]; increasing amount of BNM-III-170 vs DMSO)	Env conformation adopted in presence of ligand ([2]; CRF01_AE gp160 with the same six mutations combined with H375S)	sCD4 signal in presence of compound (competition, indirect measure of interaction with Env) ([2]; LM-HS mutant, BMS-626529 50 μM vs DMSO, detected with anti-CD4 OKT4 mAb)	Env recognition by bNAbs preferentially binding state 1 in presence of compound ([3]; increasing amount of BMS-626529 vs DMSO)
CNCc1ccc2c(c1)C[C@H](CN=C(N)N)[C@H]2NC(=O)C(=O)Nc1ccc(Cl)c(F)c1.O=C(O)C(F)(F)F.O=C(O)C(F)(F)F [BNM-III-170]	dramatically enhanced the susceptibility	did not restore neutralization sensibility	more sensitive to neutralization	did not restore sensitivity	resistant to neutralization	tend to adopt an open state 2/3 configuration	superior; also recorded: more susceptible	decrease in recognition	increase in sCD4 and nnAbs binding	enhanced Env recognition	–	–	–
COc1cnc(-n2cnc(C)n2)c2[nH]cc(C(=O)C(=O)N3CCN(C(=O)c4ccccc4)CC3)c12 [BMS-626529, temsavir]	–	–	sensitized	–	–	–	–	–	–	–	tend to adopt a state 1 configuration	statistically significant decrease	enhanced Env recognition
